Measured values from ChEMBL document CHEMBL3046605, “Biocontrol of rice blast by the phenaminomethylacetic acid producer of Bacillus methylotrophicus strain BC79” (2013).

Tests used:
Format in all cases: functional
Pyricularia oryzae [1] = assay: Antifungal activity against Magnaporthe oryzae in rice seedlings assessed as rice yield at 15% with formulation dose of 200 g/667 m'2 applied using knapsack sprayer measured under field trials (reference value: 5940.6 +/-1.8 kg/hm'2)
Pyricularia oryzae [2] = assay: Antifungal activity against Magnaporthe oryzae in rice seedlings assessed as rice blast disease control efficacy at 15% with formulation dose of 400 g/667 m'2 applied using knapsack sprayer measured under field trials
Pyricularia oryzae [3] = assay: Antifungal activity against Magnaporthe oryzae in rice seedlings assessed as rice blast disease incidence treated after fungal inoculation at 15% measured under green house conditions (reference value: 92.4 +/-5.6%)
Pyricularia oryzae [4] = assay: Antifungal activity against Magnaporthe oryzae in rice seedlings assessed as rice blast disease control efficacy at 15% with formulation dose of 200 g/667 m'2 applied using knapsack sprayer measured under field trials
Pyricularia oryzae [5] = assay: Antifungal activity against Magnaporthe oryzae in rice seedlings assessed as rice blast disease incidence at 15% with formulation dose of 400 g/667 m'2 applied using knapsack sprayer measured under field trials (reference value: 43.7 +/-5.4%)
Pyricularia oryzae [6] = assay: Antifungal activity against Magnaporthe oryzae in rice seedlings assessed as rice yield at 15% with formulation dose of 400 g/667 m'2 applied using knapsack sprayer measured under field trials (reference value: 5940.6 +/-1.8 kg/hm'2)
Pyricularia oryzae [7] = assay: Antifungal activity against Magnaporthe oryzae in rice seedlings assessed as rice blast disease incidence at 15% with formulation dose of 200 g/667 m'2 applied using knapsack sprayer measured under field trials (reference value: 43.7 +/-5.4%)
Pyricularia oryzae [8] = assay: Antifungal activity against Magnaporthe oryzae in rice seedlings assessed as rice blast disease control efficacy treated 24 hr prior to fungal inoculation at 15% measured at 6 days post-inoculation under green house conditions
Pyricularia oryzae [9] = assay: Antifungal activity against Magnaporthe oryzae in rice seedlings assessed as rice blast disease incidence treated 24 hr prior to fungal inoculation at 15% measured at 6 days post-inoculation under green house conditions (reference value: 92.4 +/-5.6%)
Pyricularia oryzae [10] = assay: Antifungal activity against Magnaporthe oryzae in rice seedlings assessed as rice blast disease control efficacy treated after fungal inoculation at 15% measured under green house conditions

## O=C(O)CCNc1ccccc1 [PHENAMINO METHYL ACETIC ACID]
Pyricularia oryzae [1]
  Activity: 6480.5 Kg/hr.m2
Pyricularia oryzae [2]
  Efficacy: 75.5%
Pyricularia oryzae [3]
  Activity: 60%
Pyricularia oryzae [4]
  Efficacy: 68.3%
Pyricularia oryzae [5]
  Activity: 18.3%
Pyricularia oryzae [6]
  Activity: 6275.7 Kg/hr.m2
Pyricularia oryzae [7]
  Activity: 18.3%
Pyricularia oryzae [8]
  Efficacy: 74.3%
Pyricularia oryzae [9]
  Activity: 62.5%
Pyricularia oryzae [10]
  Efficacy: 73.6%
